The assay deals with P388 leukemia ip, CD2F1 mice, survival T/C. The experiment in a line: NCI In Vivo Anticancer Drug Screen. Data for tumor model P388 Leukemia (intraperitoneal) in CD2F1 (CDF1) mice. The following applies: endpoint: median survival time, higher = longer survival. A digest of the protocol: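 Mice carrying the transplanted tumor received test compound or vehicle. Survival was recorded in each group, and the value is the treated-group measurement divided by that of the vehicle-treated control group.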

Where [1] appears, read: dose: 6.25 mg/kg/injection, schedule: Q01DX009 (ip), vehicle: saline with Tween-80.
Where [2] appears, read: dose: 25.0 mg/kg/injection, schedule: Q01DX009 (ip), vehicle: saline with Tween-80.
[3] abbreviates: dose: 50.0 mg/kg/injection, schedule: Q01DX005 (ip), vehicle: Klucel (hydroxypropylcellulose) (HPC).
The mark [4] stands for this setting: dose: 100.0 mg/kg/injection, schedule: Q01DX005 (ip), vehicle: Klucel (hydroxypropylcellulose) (HPC).
The mark [5] stands for this setting: dose: 200.0 mg/kg/injection, schedule: Q01DX005 (ip), vehicle: Klucel (hydroxypropylcellulose) (HPC).
Where [6] appears, read: dose: 50.0 mg/kg/injection, schedule: Q01DX009 (ip), vehicle: saline with Tween-80.
Setting [7] is: dose: 100.0 mg/kg/injection, schedule: Q01DX009 (ip), vehicle: saline with Tween-80.
Setting [8] is: dose: 6.25 mg/kg/injection, schedule: Q01DX005 (ip), vehicle: Klucel (hydroxypropylcellulose) (HPC).
Setting [9] is: dose: 12.5 mg/kg/injection, schedule: Q01DX005 (ip), vehicle: Klucel (hydroxypropylcellulose) (HPC).
The mark [10] stands for this setting: dose: 50.0 mg/kg/injection, schedule: Q01DX009 (ip), vehicle: Klucel (hydroxypropylcellulose) (HPC).

Toxic doses and inconclusive results are not listed.

On to `CCCOC(=O)/C=C(\Cl)C(=O)OCCC`, for which the T/C is 104 % of control under setting [1]; 109 % of control (dose: 12.5 mg/kg/injection, schedule: Q01DX009 (ip), vehicle: saline with Tween-80); 113 % of control under setting [2].

In the case of `C[C@@]12O[C@]1(C)[C@@H]1[C@H]3O[C@H]3[C@@H]2N(C(=O)OCC(Cl)(Cl)Cl)N1C(=O)OCC(Cl)(Cl)Cl`, the T/C was 100 % of control under setting [3], 105 % of control under setting [4] and 100 % of control under setting [5].

Consider `O=C(O)COc1cc2c(cc1Cc1ccc3c(c1)OCO3)OCO2`, for which the T/C by setting is: under setting [3], 99 % of control; under setting [4], 96 % of control; under setting [5], 97 % of control.

In the case of `CCCCCCCCOC(=O)c1ccccc1OP(=O)(N(C)C)N(C)C`, the T/C is, setting by setting: (dose: 50.0 mg/kg/injection, schedule: Q01DX005 (ip), vehicle: saline) 107 % of control; (dose: 100.0 mg/kg/injection, schedule: Q01DX005 (ip), vehicle: saline) 112 % of control; (dose: 200.0 mg/kg/injection, schedule: Q01DX005 (ip), vehicle: saline) 100 % of control.

For `COC(=O)CC1c2ccc3cc(OC)ccc3c2CCC1(C)C(=O)OC` (configuration not stated), the T/C is 103 % of control (dose: 50.0 mg/kg/injection, schedule: Q01DX005 (ip), vehicle: saline with Tween-80); 96 % of control (dose: 100.0 mg/kg/injection, schedule: Q01DX005 (ip), vehicle: saline with Tween-80); 98 % of control (dose: 200.0 mg/kg/injection, schedule: Q01DX005 (ip), vehicle: saline with Tween-80).

As for `Nc1ccc(C(OC(=O)c2cc3ccccc3c(Cc3c(O)c(C(=O)OC(c4ccc(N)cc4)(c4ccc(N)cc4)c4ccc(N)cc4)cc4ccccc34)c2O)(c2ccc(N)cc2)c2ccc(N)cc2)cc1`, the T/C under setting [1] is 117 % of control.

Consider `C/C(=C1/N=C(c2ccccc2)OC1=O)c1ccc(C)cc1`, for which the T/C was 106 % of control under setting [3], 90 % of control under setting [4] and 106 % of control under setting [5].

Consider `CN(C)c1ccc2ncc(C(N)=O)c(N)c2c1`, for which the T/C is 91 % of control (dose: 7.5 mg/kg/injection, schedule: Q01DX005 (ip), vehicle: Klucel (hydroxypropylcellulose) (HPC)); 99 % of control (dose: 15.0 mg/kg/injection, schedule: Q01DX005 (ip), vehicle: Klucel (hydroxypropylcellulose) (HPC)); 97 % of control (dose: 30.0 mg/kg/injection, schedule: Q01DX005 (ip), vehicle: Klucel (hydroxypropylcellulose) (HPC)).

Consider `CC1=[N+]([O-])[N+]([O-])=C(c2ccccc2)C1=O`, for which the T/C under setting [2] is 107 % of control, the T/C under setting [6] is 92 % of control and the T/C under setting [7] is 107 % of control.

Regarding `Cc1cccc(/C=C/C(=O)C(CN(C)C)CN(C)C)c1`, the T/C reads like this: under setting [8], 104 % of control; under setting [9], 100 % of control.

Consider `CC(=O)Oc1ccccc1C#CC(=O)O`, for which the T/C was 96 % of control under setting [6]; 90 % of control under setting [7]; 94 % of control (dose: 200.0 mg/kg/injection, schedule: Q01DX009 (ip), vehicle: saline with Tween-80).

Consider `N[C@@]1(C(F)(F)F)N[C@](N)(C(F)(F)F)C(F)(F)C(F)(F)C1(F)F`, for which the T/C is 102 % of control under setting [8] and 95 % of control under setting [9].

As for `C=C(C#N)C1OC2OC(C)(C)OC2C1OCCCCCCCC` (configuration not stated), the T/C reads like this: (dose: 100.0 mg/kg/injection, schedule: Q04DX002 (ip), vehicle: saline with Tween-80) 106 % of control; (dose: 200.0 mg/kg/injection, schedule: Q04DX002 (ip), vehicle: saline with Tween-80) 106 % of control.

As to `O=C(NNc1ccccc1)c1ccccc1`, the T/C is 100 % of control (dose: 3.13 mg/kg/injection, schedule: Q01DX009 (ip), vehicle: Klucel (hydroxypropylcellulose) (HPC)); 98 % of control (dose: 6.25 mg/kg/injection, schedule: Q01DX009 (ip), vehicle: Klucel (hydroxypropylcellulose) (HPC)); 100 % of control (dose: 12.5 mg/kg/injection, schedule: Q01DX009 (ip), vehicle: Klucel (hydroxypropylcellulose) (HPC)); 100 % of control (dose: 25.0 mg/kg/injection, schedule: Q01DX009 (ip), vehicle: Klucel (hydroxypropylcellulose) (HPC)); 113 % of control under setting [10].

Take `CC12CC3(C)CC(C)(C1)CC(Br)(C2)C3`: the T/C under setting [10] was 100 % of control; the T/C (dose: 100.0 mg/kg/injection, schedule: Q01DX009 (ip), vehicle: Klucel (hydroxypropylcellulose) (HPC)) is 99 % of control; the T/C (dose: 200.0 mg/kg/injection, schedule: Q01DX009 (ip), vehicle: Klucel (hydroxypropylcellulose) (HPC)) was 97 % of control.

On to `CCc1ccccc1NC(=O)C(=O)CC(=O)C1=C(C)Nc2ccccc2S1`, for which the T/C (dose: 60.0 mg/kg/injection, schedule: Q01DX005 (ip), vehicle: saline with Tween-80) was 90 % of control; the T/C (dose: 120.0 mg/kg/injection, schedule: Q01DX005 (ip), vehicle: saline with Tween-80) was 96 % of control; the T/C (dose: 240.0 mg/kg/injection, schedule: Q01DX005 (ip), vehicle: saline with Tween-80) is 99 % of control.

In the case of `Oc1cc2c(cc1O)[C@H]1c3ccc(O)c(O)c3OC[C@@]1(O)C2`, the T/C is, setting by setting: (dose: 6.25 mg/kg/injection, schedule: Q01DX009 (ip), vehicle: saline) 100 % of control; (dose: 12.5 mg/kg/injection, schedule: Q01DX009 (ip), vehicle: saline) 101 % of control; (dose: 25.0 mg/kg/injection, schedule: Q01DX009 (ip), vehicle: saline) 112 % of control; (dose: 50.0 mg/kg/injection, schedule: Q01DX009 (ip), vehicle: saline) 122 % of control; (dose: 100.0 mg/kg/injection, schedule: Q01DX009 (ip), vehicle: saline) 113 % of control; (dose: 200.0 mg/kg/injection, schedule: Q01DX009 (ip), vehicle: saline) 115 % of control.

Turning to `COc1cc2c(c(OC)c1OC)-c1ccc(OC)c(=O)cc1[C@@H](NC(=O)c1ccccc1)CC2`, the T/C is 156 % of control (dose: 0.5 mg/kg/injection, schedule: Q01DX009 (ip), vehicle: Klucel (hydroxypropylcellulose) (HPC)); 121 % of control (dose: 0.5 mg/kg/injection, schedule: Q01DX009 (ip), vehicle: saline with Tween-80); 154 % of control (dose: 0.63 mg/kg/injection, schedule: Q01DX009 (ip), vehicle: distilled water + Tween-80); 182 % of control (dose: 1.0 mg/kg/injection, schedule: Q01DX009 (ip), vehicle: Klucel (hydroxypropylcellulose) (HPC)); 218 % of control (dose: 1.25 mg/kg/injection, schedule: Q01DX009 (ip), vehicle: distilled water + Tween-80); 165 % of control (dose: 2.0 mg/kg/injection, schedule: Q01DX009 (ip), vehicle: saline with Tween-80). The T/C (dose: 2.5 mg/kg/injection, schedule: Q01DX009 (ip), vehicle: distilled water + Tween-80) was 261 % of control; the T/C (dose: 4.0 mg/kg/injection, schedule: Q01DX009 (ip), vehicle: saline with Tween-80) is 86 % of control; the T/C (dose: 5.0 mg/kg/injection, schedule: Q04DX003 (ip), vehicle: saline sonified) was 109 % of control; the T/C (dose: 5.0 mg/kg/injection, schedule: Q04DX003 (ip), vehicle: saline with Tween-80) was 186 % of control; the T/C (dose: 7.5 mg/kg/injection, schedule: Q04DX003 (ip), vehicle: saline sonified) was 154 % of control.

Turning to `CC(=O)O[C@@H]1C[C@@](C)(C(=O)[C@H]2COC(=O)C2)[C@@H]2CC(=O)O[C@@H]3C[C@H]4[C@H](C)C[C@H](O)C(=O)[C@]4(C)[C@@H]1[C@]23C`, the T/C was 98 % of control (dose: 3.0 mg/kg/injection, schedule: Q01DX009 (ip), vehicle: saline + alcohol); 116 % of control (dose: 6.0 mg/kg/injection, schedule: Q01DX009 (ip), vehicle: saline + alcohol); 107 % of control (dose: 12.0 mg/kg/injection, schedule: Q01DX009 (ip), vehicle: saline + alcohol); 100 % of control (dose: 24.0 mg/kg/injection, schedule: Q01DX009 (ip), vehicle: saline + alcohol); 107 % of control (dose: 48.0 mg/kg/injection, schedule: Q01DX009 (ip), vehicle: saline + alcohol).

(Values after PubChem BioAssay AID330 (DTP/NCI, 2004).)
